Experimental data as given in patent publication US11583570B2, “Use of autoinducer-related pathway in inducing apoptosis and anti-infective therapy” (TSINGHUA UNIVERSITY, priority 2017, dated 2023).

What was measured:
[1] = test system: FADD in complex with caspase 8; experiment: FADD / caspase 8 co-immunoprecipitation; type: cell-based; conditions: following 3OC12 HSL treatment
Procedure: (§1) For FADD immunoprecipitation, 4 μg anti-mouse FADD pAb (Santa Cruz, H-181) were incubated with 100 μl protein A/G agarose for 2 hrs at RT. 3 million/ml purified CD4 T cells were stimulated with HSLs or left untreated. The cells were then collected and lysed with IP lysis buffer (50 mM HEPES pH 7.4, 150 mM NaCl, 1% NP-40, 1 mM EDTA, 1 mM PMSF, 1 mM NaF, 1 mM NaVO3 and protease inhibitor cocktails). The cell lysates were added into antibody-bead mixtures for 3 hrs at 4° C. Beads were then collected by low speed centrifugation (1000 g, 5 min) and washed 4 times with IP lysis buffer (300 mM NaCl added). After the last wash, pellets were suspended with 70 ul 2×SDS loading buffer and boiled for 5 min. For caspase 8 immunoprecipitation, 4 μg anti-Caspase 8 pAb (Santa Cruz, C-20) was incubated with 100 μl protein A/G agarose for 1 hr at RT. 3 million/ml H9 cells were treated with HSLs or left untreated. The samples were processed as in FADD IP. For cross-linking assay, CD4+ T cells isolated from C57BL/6 mice spleen or human THP-1 cells was stimulated with HSLs or left untreated, then cells were collected and cross-linked by 10 mM DTSSP at RT for 30 min and quenched with 1M Tris-HCl (pH7.5) for 15 min. […]

Fcγ RIIA = experiment: Quantum dot-based single particle tracking, Fcγ RIIA in Cos-1 cells; type: cell-based, human
Procedure: To track individual TNFR1 on the cell membrane, anti-TNFR1 IgG (was first papain digested to yield a Fab fragment. The Fab was then conjugated with biotin through the unique —SH at its C terminal. To prepare anti TNFR1 Fab QD conjugates, a solution of 0.7 nM anti TNFR1—Fab-biotin in 1 ml of DMEM was added drop-wise to 1 ml of 2 nM QD 605-streptavidin conjugate. Cell monolayers (50% confluent) previously serum starved for 1 hr were treated with 3OC12 HSL or left untreated and incubated with […] of the final anti TNFR1-Fab-QD solution at 25° C. for 2 min. The cells were then washed twice with PBS at 25° C., placed in serum-free medium, and loaded for imaging. For single-FcRγIIA tracking, Fc fragment was obtained by papain digestion of an anti-BSA IgG (Sigma Aldrich). Fc-QD conjugate was produced as described before. Cos-1 cells were transiently transfected with Fcγ RIIA plasmid, 24 hrs later, cells were stimulated with 3OC12 HSL or left untreated and incubated with […] of the final Fc-QD solution at 25° C. for 2 min. Quantum dot-labeled cells were imaged in TIRF mode. The fluorescence was excited at 488 nm and gated by a band-pass filter (575-640, Carl Zeiss). The excitation power was about 2 mW measured after the objective. Movies of 400 frames were acquired for each sample at a full-frame rate of 17 Hz. Individual trajectories were constructed by Utrack written in Matlab. Diffusion coefficient and plot area were calculated by customized programs written with Matlab. For motion pattern determination by MSD-t analysis 5: linear, simple Brownian diffusion; open-up parabolic, directed diffusion; open-down parabolic, restricted diffusion; and near zero, stationary.

THP-1 cell line = experiment: Annexin V/PI apoptosis detection, THP-1; type: cell-based, human; conditions: THP-1
Procedure: (§2) Cell apoptosis was detected with Annexin V/PI apoptosis detection Kit. Briefly, cells were stimulated with HSLs or left untreated. 6 hrs later, cells were collected and stained with Annexin VFITC and PI for 15 min at RT, then the apoptotic effect was measured by flow cytometry. OT-I or OT-II splenocytes were pulsed with specific peptides or PMA and ionomycin mixture with or without HSLs or TNF α plus cycloheximide. 24 hrs later, cells and supernatants were collected separately. For OT-I activation, cells were stained with CD69 and CD8. For OT-II activation, cells were stained with CD69 and CD4. Cell activation was measured by flow cytometry. All supernatants were detected for IL-2 secretion by ELISA.
In order to verify TNFR1-FADD-caspase8-caspase3 pathway inhibitor can block immunocyte apoptosis caused by 3OC12-HSL clinically. The inventors use a clinical version of caspase inhibitor Emricasan as a test. […] To be specific, in a 12 plate, THP-1 cells were cultured with indicated concentrations of 3OC and Emricasan. After 1 hr, cells were collection for flow cytometric analysis of AnnexinV and PI. […] In FIG. 17b, live cell percentage of different treatment were enumerated by flow cytometry. Bar graphs of live cell percentage are depicted by mean±SEM. Then samples prepared as in FIG. 17a and FIG. 17b were used for WB analysis for the activation (cleavage) of Caspase 8 and 3. […]

caspases 8 and 3 = experiment: Caspase 8 and 3 cleavage in CD4 T cells (Western blot), mouse; type: cell-based; conditions: mouse (FIG. 2d)
ZAP70 = ZAP70 phosphorylation in live cells recovered from T cell culture; type: cell-based; conditions: live cells recovered from the culture
TNFR1 [2] = experiment: DTSSP cross-linking assay, TNFR1; type: cell-based; conditions: crosslinker DTSSP, non-reducing condition
Procedure: as §1

TNFR1 [3] = experiment: Lipid raft isolation, TNFR1 in detergent resistant domains; type: cell-based; conditions: human and mouse T cells
[4] = test system: primary T cell and T cell line; experiment: T cell activation (IL-2 release, CD69 expression); type: cell-based, mouse; conditions: induced by MHC class I and class II-restricted antigens or PMA plus ionophore
Procedure: as §2

EGFR = EGFR phosphorylation; type: cell-based; conditions: in the absence of the ligand
lymphoblast H9 = experiment: Annexin V/PI apoptosis detection, H9; type: cell-based, human
Procedure: as §2

## CCCCCCCCCC(=O)CC(=O)N[C@H]1CCOC1=O [3OC12 HSL, N-(3-oxo-dodecanoyl) homoserine lactone]
[1]
  FADD association with caspase 8: in complex with caspase 8
Fcγ RIIA
  Fcγ RIIA motion pattern: higher percentage of Fcγ RIIA belonged to the simple and directed motions
Fcγ RIIA; without 3OC12 HSL 0.1056
  Fcγ RIIA diffusion coefficient: 0.1564+/−0.006
Fcγ RIIA; without 3OC12 HSL 0.6467
  area covered by Fcγ RIIA motion tracks: 0.9310+/−0.045
THP-1 cell line
  sensitivity to 3OC12 HSL: sensitive
Caspases 8 and 3
  caspase 8 and 3 cleavage: cleaved in a dose and time-dependent manner
ZAP70
  ZAP70 phosphorylation: minimally affected
TNFR1 [2]
  amount of band with approximate 3 times the molecular weight of TNFR1 monomer: rapidly increased
TNFR1 [3]
  TNFR1 associated with lipid rafts: reduced
[4]
  T cell activation measured by IL-2 release and CD69 expression: suppress
EGFR
  EGFR phosphorylation: became detectable
Lymphoblast H9
  sensitivity to 3OC12 HSL: relatively resistant
